Source: US20250163104A1, “MACROCYCLIC IMMUNOMODULATORS” (priority 2021, published 2025)
Where a SMILES comes first, the peptide text is derived from it. Bridges are numbered along the chain shown (N, C = ends). [ ]: non-standard residue; d: D form. The star is where a group is joined. ξ: configuration not given here. Phe(4-COOH) = N[C@@H](Cc1ccc(C(=O)O)cc1)C(=O)O; Bip = N[C@@H](Cc1ccc(-c2ccccc2)cc1)C(=O)O; Phe(3-OMe) = COc1cccc(C[C@H](N)C(=O)O)c1; Phe(3-Me) = Cc1cccc(C[C@H](N)C(=O)O)c1; 4Pal = N[C@@H](Cc1ccncc1)C(=O)O; Cha = N[C@@H](CC1CCCCC1)C(=O)O; Cit = NC(=O)NCCC[C@H](N)C(=O)O; Ile(3ξ) = CCC(C)[C@H](N)C(=O)O; NMeDab = CN[C@@H](CCN)C(=O)O; Carboxymethyl = O=C(O)C*; Orn = NCCC[C@H](N)C(=O)O; Dab = NCC[C@H](N)C(=O)O; Piv = CC(C)(C)C(=O)*

Molecular target: T1, human PD-1 / PD-L1-Ig binding on Jurkat cell line over-expressing human PD-1 (Jurkat-PD-1) (Homo sapiens, UniProt Q15116)
T1 construct: expressed in transfected cells; host or cells: Jurkat
Assay: Jurkat-PD-1 Cell Binding High-Content Screening Assay (CBA)
Type: cell-based
Settings: Jurkat-PD-1 cells, PE-labeled PD-L1-Ig 20 nM final; read-out: Jurkat HPD1_PDL1 IC50
Summary of the method: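 Compounds were preincubated with Jurkat-hPD-1 cells in DMEM plus 10% fetal calf serum for 2 h at 37° C. Phycoerythrin-labeled PD-L1-Ig (20 nM final) was then added for 1 hour. Cells were fixed in 4% paraformaldehyde with Hoechst 33342, and bound fluorescence was quantified by high-content imaging.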

T1 sequence (Q15116 25-288): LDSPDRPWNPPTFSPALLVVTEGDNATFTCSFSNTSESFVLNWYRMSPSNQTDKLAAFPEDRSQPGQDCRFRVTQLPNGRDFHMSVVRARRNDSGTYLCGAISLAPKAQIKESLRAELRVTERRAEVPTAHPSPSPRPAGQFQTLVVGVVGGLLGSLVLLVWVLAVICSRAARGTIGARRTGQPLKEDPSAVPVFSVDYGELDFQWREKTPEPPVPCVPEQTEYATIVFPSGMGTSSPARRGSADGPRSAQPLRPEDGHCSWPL

Compound | IC50
CCC(C)[C@@H]1NC(=O)[C@H](Cc2ccc(-c3ccccc3)cc2)NC(=O)[C@H](C(C)C)NC(=O)[C@H](Cc2cccc(C)c2)NC(=O)[C@H](CC(=O)O)NC(=O)[C@H](Cc2ccc(C(=O)O)cc2)NC(=O)[C@H](Cc2ccncc2)NC(=O)CSC[C@@H](C(N)=O)NC(=O)[C@H](CCC(=O)O)NC(=O)[C@H](C(C)C)NC(=O)[C@H](CC2CCCCC2)NC(=O)[C@H](CCN)NC(=O)[C@@H](CC(C)C)NC(=O)[C@H](CCCN)NC1=O (stereo partly drawn) [Compound 2277] ({CH2CO}-[4Pal][Phe(4-COOH)]D[Phe(3-Me)]V[Bip][Ile(3ξ)][Orn][dL][Dab][Cha]VEC-NH2; thioether N-14) | 32.6 nM
CCC(C)[C@@H]1NC(=O)[C@H](Cc2ccc(-c3ccccc3)cc2)NC(=O)[C@H](C(C)C)NC(=O)[C@H](Cc2c[nH]c3ccccc23)NC(=O)[C@H](CC(=O)O)NC(=O)[C@H](Cc2ccc(OCC(=O)O)cc2)NC(=O)[C@H](CCN)N(C)C(=O)CSC[C@@H](C(=O)N[C@@H](C)C(N)=O)NC(=O)[C@H](CO)NC(=O)[C@H](C(C)C)NC(=O)[C@H](CC2CCCCC2)NC(=O)[C@H](CCN)NC(=O)[C@@H](CC(C)C)NC(=O)[C@H](CCCN)NC1=O (stereo partly drawn) [Compound 2517] ({CH2CO}-[NMeDab]Y(Carboxymethyl)DWV[Bip][Ile(3ξ)][Orn][dL][Dab][Cha]VSCA-NH2; thioether N-14) | 3.4 nM
COc1cccc(C[C@@H]2NC(=O)[C@H](CC(=O)O)NC(=O)[C@H](Cc3ccc(OCC(=O)O)cc3)NC(=O)[C@H](Cc3ccncc3)NC(=O)CSC[C@@H](C(=O)N[C@@H](C)C(N)=O)NC(=O)[C@H]([C@@H](C)O)NC(=O)[C@H](C(C)C)NC(=O)[C@H](CC(C)C)NC(=O)[C@H](CCN)NC(=O)[C@@H](CC(C)C)NC(=O)[C@H](CCCN)NC(=O)[C@H](C(C)C)NC(=O)[C@H](Cc3ccc(-c4ccccc4)cc3)NC(=O)[C@H](C(C)C)NC2=O)c1 [Compound 1188] ({CH2CO}-[4Pal]Y(Carboxymethyl)D[Phe(3-OMe)]V[Bip]V[Orn][dL][Dab]LVTCA-NH2; thioether N-14) | 7.9 nM
Cc1cccc(C[C@@H]2NC(=O)[C@H](CC(=O)O)NC(=O)[C@H](Cc3ccc(OCC(=O)O)cc3)NC(=O)[C@H](Cc3ccncc3)NC(=O)CSC[C@@H](C(=O)N[C@@H](CCN)C(N)=O)NC(=O)[C@H]([C@@H](C)O)NC(=O)[C@H](C(C)C)NC(=O)[C@H](CC3CCCCC3)NC(=O)[C@H](CCNC(=O)C(C)(C)C)NC(=O)[C@@H](CC(C)C)NC(=O)[C@H](CCN)NC(=O)[C@H](Cc3ccc(OCC(=O)O)cc3)NC(=O)[C@H](Cc3ccc(-c4ccccc4)cc3)NC(=O)[C@H](Cc3ccc(OCC(=O)O)cc3)NC2=O)c1 [Compound 2062] ({CH2CO}-[4Pal]Y(Carboxymethyl)D[Phe(3-Me)]Y(Carboxymethyl)[Bip]Y(Carboxymethyl)[Dab][dL][Dab](Piv)[Cha]VTC[Dab]-NH2; thioether N-14) | 12.8 nM
CC[C@H](C)[C@@H]1NC(=O)[C@H](Cc2ccc(-c3ccccc3)cc2)NC(=O)[C@H](C(C)C)NC(=O)[C@H](Cc2c[nH]c3ccccc23)NC(=O)[C@H](CC(=O)O)NC(=O)[C@H](Cc2ccc(C(=O)O)cc2)NC(=O)[C@H](Cc2ccc(OCC(=O)O)cc2)NC(=O)CSC[C@@H](C(=O)N[C@@H](C)C(N)=O)NC(=O)[C@H]([C@@H](C)O)NC(=O)[C@H](C(C)C)NC(=O)[C@H](CC(C)C)NC(=O)[C@H](CCN)NC(=O)[C@@H](CC(C)C)NC(=O)[C@H](CCCN)NC1=O [Compound 1250] ({CH2CO}-Y(Carboxymethyl)[Phe(4-COOH)]DWV[Bip]I[Orn][dL][Dab]LVTCA-NH2; thioether N-14) | 6.9 nM
Cc1cccc(C[C@@H]2NC(=O)[C@H](CC(=O)O)NC(=O)[C@H](Cc3ccc(C(=O)O)cc3)NC(=O)[C@H](Cc3ccncc3)NC(=O)CSC[C@@H](C(N)=O)NC(=O)[C@H](CCC(N)=O)NC(=O)[C@H](C(C)C)NC(=O)[C@H](CC3CCCCC3)NC(=O)[C@H](CCN)NC(=O)[C@@H](CC(C)C)NC(=O)[C@H](CCCN)NC(=O)[C@H](CCCNC(N)=O)NC(=O)[C@H](Cc3ccc(-c4ccccc4)cc3)NC(=O)[C@H](C(C)C)NC2=O)c1 [Compound 2272] ({CH2CO}-[4Pal][Phe(4-COOH)]D[Phe(3-Me)]V[Bip][Cit][Orn][dL][Dab][Cha]VQC-NH2; thioether N-14) | 32 nM
